Experimental data published in ChEMBL document CHEMBL1909294, “Translating clinical findings into knowledge in drug safety evaluation--drug induced liver injury prediction system (DILIps)” (PLoS Comput Biol, 2011).

Experiments:
Hepatotoxicity [1] = test system: Hepatotoxicity;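 on HepSE cholecystitis: Cholecystitis-related hepatic side effect score drawn from the DILIps (drug-induced liver injury prediction) training data set; call rule not given here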;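 on HepSE cholelithiasis: hepatic side effect score for cholelithiasis, drawn from the DILIps training data for predicting drug-induced liver injury; call rule not given here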;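 on HepSE hepatitis: Hepatitis-related hepatic side effect score taken from the training data of DILIps, a prediction system for drug-induced liver injury; call rule not given here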;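 on HepSE hepatomegaly: hepatic side effect score for hepatomegaly, taken from the training set of the DILIps drug-induced liver injury prediction system; call rule not given here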;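 on HepSE jaundice: Jaundice-related hepatic side-effect score drawn from the training data of the DILIps (drug-induced liver injury prediction system); call rule not given here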; on HepSE liver disease: call rule not given here;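 on HepSE liver function tests abnormal: hepatic side effect score taken from the DILIps (drug-induced liver injury prediction system) training data, here covering abnormal liver function test findings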
Hepatotoxicity [2] = test system: Hepatotoxicity; remark: listed apart in the source;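 on HepSE cholelithiasis: hepatic side effect score for cholelithiasis, drawn from the DILIps training data for predicting drug-induced liver injury; call rule not given here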;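 on HepSE hepatitis: Hepatitis-related hepatic side effect score taken from the training data of DILIps, a prediction system for drug-induced liver injury; call rule not given here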;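 on HepSE hepatomegaly: hepatic side effect score for hepatomegaly, taken from the training set of the DILIps drug-induced liver injury prediction system; call rule not given here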;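 on HepSE jaundice: Jaundice-related hepatic side-effect score drawn from the training data of the DILIps (drug-induced liver injury prediction system); call rule not given here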; on HepSE liver disease: call rule not given here;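 on HepSE liver function tests abnormal: hepatic side effect score taken from the DILIps (drug-induced liver injury prediction system) training data, here covering abnormal liver function test findings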
Hepatotoxicity [3] = test system: Hepatotoxicity; remark: listed apart in the source;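 on HepSE cholelithiasis: hepatic side effect score for cholelithiasis, drawn from the DILIps training data for predicting drug-induced liver injury; call rule not given here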;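 on HepSE hepatitis: Hepatitis-related hepatic side effect score taken from the training data of DILIps, a prediction system for drug-induced liver injury; call rule not given here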;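 on HepSE hepatomegaly: hepatic side effect score for hepatomegaly, taken from the training set of the DILIps drug-induced liver injury prediction system; call rule not given here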;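 on HepSE jaundice: Jaundice-related hepatic side-effect score drawn from the training data of the DILIps (drug-induced liver injury prediction system); call rule not given here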; on HepSE liver disease: call rule not given here;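 on HepSE liver function tests abnormal: hepatic side effect score taken from the DILIps (drug-induced liver injury prediction system) training data, here covering abnormal liver function test findings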
Hepatotoxicity [4] = test system: Hepatotoxicity; remark: listed apart in the source;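 on HepSE cholelithiasis: hepatic side effect score for cholelithiasis, drawn from the DILIps training data for predicting drug-induced liver injury; call rule not given here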;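 on HepSE hepatitis: Hepatitis-related hepatic side effect score taken from the training data of DILIps, a prediction system for drug-induced liver injury; call rule not given here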;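 on HepSE hepatomegaly: hepatic side effect score for hepatomegaly, taken from the training set of the DILIps drug-induced liver injury prediction system; call rule not given here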;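 on HepSE jaundice: Jaundice-related hepatic side-effect score drawn from the training data of the DILIps (drug-induced liver injury prediction system); call rule not given here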; on HepSE liver disease: call rule not given here;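 on HepSE liver function tests abnormal: hepatic side effect score taken from the DILIps (drug-induced liver injury prediction system) training data, here covering abnormal liver function test findings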
Hepatotoxicity [5] = test system: Hepatotoxicity; remark: listed apart in the source; on HepSE liver disease: call rule not given here
Hepatotoxicity [6] = test system: Hepatotoxicity; remark: listed apart in the source; on HepSE liver disease: call rule not given here
Hepatotoxicity [7] = test system: Hepatotoxicity; remark: listed apart in the source
Hepatotoxicity [8] = test system: Hepatotoxicity; remark: listed apart in the source
Hepatotoxicity [9] = test system: Hepatotoxicity; remark: listed apart in the source
Hepatotoxicity [10] = test system: Hepatotoxicity; remark: listed apart in the source
Hepatotoxicity [11] = test system: Hepatotoxicity; remark: listed apart in the source
Hepatotoxicity [12] = test system: Hepatotoxicity; remark: listed apart in the source
Hepatotoxicity [13] = test system: Hepatotoxicity; remark: listed apart in the source
Hepatotoxicity [14] = test system: Hepatotoxicity; remark: listed apart in the source

`COc1nc(N)nc2c1ncn2[C@@H]1O[C@H](CO)[C@@H](O)[C@@H]1O` [NELARABINE] was tested, and the HepSE_jaundice (Hepatotoxicity [1]) was 0, the HepSE_hepatomegaly (Hepatotoxicity [2]) was 0 and the “HepSE_liver function tests abnormal” value (Hepatotoxicity [3]) was 0. The HepSE_hepatitis (Hepatotoxicity [4]) was 0, the HepSE_liver disease (Hepatotoxicity [5]) was 0 and the HepSE_cholelithiasis (Hepatotoxicity [6]) was 0. The HepSE_bilirubinemia (Hepatotoxicity [7]) was 0, the HepSE_cholecystitis (Hepatotoxicity [8]) was 0 and the HepSE_hepatic necrosis (Hepatotoxicity [9]) was 0. For the same compound, the HepSE_cirrhosis (Hepatotoxicity [10]) was 0, the “HepSE_Combined Scores” value (Hepatotoxicity [11]) was 0 and the “HepSE_elevated liver function tests” value (Hepatotoxicity [12]) was 0. It also gave a HepSE_hepatic failure (Hepatotoxicity [13]) of 0 and a HepSE_liver fatty (Hepatotoxicity [14]) of 0.
With `Cc1ccnc2c1NC(=O)c1cccnc1N2C1CC1` [NEVIRAPINE] the HepSE_jaundice (Hepatotoxicity [1]) was 1, the HepSE_hepatomegaly (Hepatotoxicity [2]) was 0 and the “HepSE_liver function tests abnormal” value (Hepatotoxicity [3]) was 1. The HepSE_hepatitis (Hepatotoxicity [4]) was 1, the HepSE_liver disease (Hepatotoxicity [5]) was 1 and the HepSE_cholelithiasis (Hepatotoxicity [6]) was 0. It also gave a HepSE_bilirubinemia (Hepatotoxicity [7]) of 0, a HepSE_cholecystitis (Hepatotoxicity [8]) of 0 and a HepSE_hepatic necrosis (Hepatotoxicity [9]) of 1. For the same compound, the HepSE_cirrhosis (Hepatotoxicity [10]) was 0, the “HepSE_Combined Scores” value (Hepatotoxicity [11]) was 6 and the “HepSE_elevated liver function tests” value (Hepatotoxicity [12]) was 0. For the same compound, the HepSE_hepatic failure (Hepatotoxicity [13]) was 1 and the HepSE_liver fatty (Hepatotoxicity [14]) was 0.
`COC(=O)C1=C(C)NC(C)=C(C(=O)OCCN(C)Cc2ccccc2)C1c1cccc([N+](=O)[O-])c1` (stereo unspecified) [NICARDIPINE] was tested, and the HepSE_jaundice (Hepatotoxicity [1]) was 0, the HepSE_hepatomegaly (Hepatotoxicity [2]) was 0 and the “HepSE_liver function tests abnormal” value (Hepatotoxicity [3]) was 0. The HepSE_hepatitis (Hepatotoxicity [4]) was 0, the HepSE_liver disease (Hepatotoxicity [5]) was 0 and the HepSE_cholelithiasis (Hepatotoxicity [6]) was 0. It also gave a HepSE_bilirubinemia (Hepatotoxicity [7]) of 0, a HepSE_cholecystitis (Hepatotoxicity [8]) of 0 and a HepSE_hepatic necrosis (Hepatotoxicity [9]) of 0. The HepSE_cirrhosis (Hepatotoxicity [10]) was 0, the “HepSE_Combined Scores” value (Hepatotoxicity [11]) was 0 and the “HepSE_elevated liver function tests” value (Hepatotoxicity [12]) was 0. For the same compound, the HepSE_hepatic failure (Hepatotoxicity [13]) was 0 and the HepSE_liver fatty (Hepatotoxicity [14]) was 0.
With `CN1CCC[C@H]1c1cccnc1` [NICOTINE] the HepSE_jaundice (Hepatotoxicity [1]; Liver) was 0, the HepSE_hepatomegaly (Hepatotoxicity [2]; Liver) was 0 and the “HepSE_liver function tests abnormal” value (Hepatotoxicity [3]; Liver) was 0. It also gave a HepSE_hepatitis (Hepatotoxicity [4]; Liver) of 0, a HepSE_liver disease (Hepatotoxicity [5]; Liver) of 0 and a HepSE_cholelithiasis (Hepatotoxicity [6]; Liver) of 0. It also gave a HepSE_bilirubinemia (Hepatotoxicity [7]; Liver) of 0, a HepSE_cholecystitis (Hepatotoxicity [8]; Liver) of 0 and a HepSE_hepatic necrosis (Hepatotoxicity [9]; Liver) of 0. For the same compound, the HepSE_cirrhosis (Hepatotoxicity [10]; Liver) was 0, the “HepSE_Combined Scores” value (Hepatotoxicity [11]; Liver) was 0 and the “HepSE_elevated liver function tests” value (Hepatotoxicity [12]; Liver) was 0. For the same compound, the HepSE_hepatic failure (Hepatotoxicity [13]; Liver) was 0 and the HepSE_liver fatty (Hepatotoxicity [14]; Liver) was 0.
For `COC(=O)C1=C(C)NC(C)=C(C(=O)OC)C1c1ccccc1[N+](=O)[O-]` [NIFEDIPINE], the HepSE_jaundice (Hepatotoxicity [1]) was 1, the HepSE_hepatomegaly (Hepatotoxicity [2]) was 0 and the “HepSE_liver function tests abnormal” value (Hepatotoxicity [3]) was 0. For the same compound, the HepSE_hepatitis (Hepatotoxicity [4]) was 1, the HepSE_liver disease (Hepatotoxicity [5]) was 0 and the HepSE_cholelithiasis (Hepatotoxicity [6]) was 0. It also gave a HepSE_bilirubinemia (Hepatotoxicity [7]) of 0, a HepSE_cholecystitis (Hepatotoxicity [8]) of 0 and a HepSE_hepatic necrosis (Hepatotoxicity [9]) of 0. For the same compound, the HepSE_cirrhosis (Hepatotoxicity [10]) was 0, the “HepSE_Combined Scores” value (Hepatotoxicity [11]) was 2 and the “HepSE_elevated liver function tests” value (Hepatotoxicity [12]) was 0. The HepSE_hepatic failure (Hepatotoxicity [13]) was 0 and the HepSE_liver fatty (Hepatotoxicity [14]) was 0.
With `CC1(C)NC(=O)N(c2ccc([N+](=O)[O-])c(C(F)(F)F)c2)C1=O` [NILUTAMIDE] the HepSE_jaundice (Hepatotoxicity [1]; Liver) was 0, the HepSE_hepatomegaly (Hepatotoxicity [2]; Liver) was 0 and the “HepSE_liver function tests abnormal” value (Hepatotoxicity [3]; Liver) was 0. It also gave a HepSE_hepatitis (Hepatotoxicity [4]; Liver) of 1, a HepSE_liver disease (Hepatotoxicity [5]; Liver) of 0 and a HepSE_cholelithiasis (Hepatotoxicity [6]; Liver) of 0. The HepSE_bilirubinemia (Hepatotoxicity [7]; Liver) was 0, the HepSE_cholecystitis (Hepatotoxicity [8]; Liver) was 0 and the HepSE_hepatic necrosis (Hepatotoxicity [9]; Liver) was 0. The HepSE_cirrhosis (Hepatotoxicity [10]; Liver) was 0, the “HepSE_Combined Scores” value (Hepatotoxicity [11]; Liver) was 1 and the “HepSE_elevated liver function tests” value (Hepatotoxicity [12]; Liver) was 0. For the same compound, the HepSE_hepatic failure (Hepatotoxicity [13]; Liver) was 0 and the HepSE_liver fatty (Hepatotoxicity [14]; Liver) was 0.
With `COCCOC(=O)C1=C(C)NC(C)=C(C(=O)OC(C)C)C1c1cccc([N+](=O)[O-])c1` (stereo unspecified) [NIMODIPINE] the HepSE_jaundice (Hepatotoxicity [1]) was 1, the HepSE_hepatomegaly (Hepatotoxicity [2]) was 0 and the “HepSE_liver function tests abnormal” value (Hepatotoxicity [3]) was 0. It also gave a HepSE_hepatitis (Hepatotoxicity [4]) of 1, a HepSE_liver disease (Hepatotoxicity [5]) of 0 and a HepSE_cholelithiasis (Hepatotoxicity [6]) of 0. The HepSE_bilirubinemia (Hepatotoxicity [7]) was 0, the HepSE_cholecystitis (Hepatotoxicity [8]) was 0 and the HepSE_hepatic necrosis (Hepatotoxicity [9]) was 0. The HepSE_cirrhosis (Hepatotoxicity [10]) was 0, the “HepSE_Combined Scores” value (Hepatotoxicity [11]) was 2 and the “HepSE_elevated liver function tests” value (Hepatotoxicity [12]) was 0. It also gave a HepSE_hepatic failure (Hepatotoxicity [13]) of 0 and a HepSE_liver fatty (Hepatotoxicity [14]) of 0.
For `O=C1CN=C(c2ccccc2)c2cc([N+](=O)[O-])ccc2N1` [NITRAZEPAM], the HepSE_jaundice (Hepatotoxicity [1]) was 0, the HepSE_hepatomegaly (Hepatotoxicity [2]) was 0 and the “HepSE_liver function tests abnormal” value (Hepatotoxicity [3]) was 0. The HepSE_hepatitis (Hepatotoxicity [4]) was 0, the HepSE_liver disease (Hepatotoxicity [5]) was 0 and the HepSE_cholelithiasis (Hepatotoxicity [6]) was 0. It also gave a HepSE_bilirubinemia (Hepatotoxicity [7]) of 0, a HepSE_cholecystitis (Hepatotoxicity [8]) of 0 and a HepSE_hepatic necrosis (Hepatotoxicity [9]) of 0. The HepSE_cirrhosis (Hepatotoxicity [10]) was 0, the “HepSE_Combined Scores” value (Hepatotoxicity [11]) was 0 and the “HepSE_elevated liver function tests” value (Hepatotoxicity [12]) was 0. It also gave a HepSE_hepatic failure (Hepatotoxicity [13]) of 0 and a HepSE_liver fatty (Hepatotoxicity [14]) of 0.
For `[N]=O` [NITRIC OXIDE], the HepSE_jaundice (Hepatotoxicity [1]) was 0, the HepSE_hepatomegaly (Hepatotoxicity [2]) was 0 and the “HepSE_liver function tests abnormal” value (Hepatotoxicity [3]) was 0. The HepSE_hepatitis (Hepatotoxicity [4]) was 0, the HepSE_liver disease (Hepatotoxicity [5]) was 0 and the HepSE_cholelithiasis (Hepatotoxicity [6]) was 0. The HepSE_bilirubinemia (Hepatotoxicity [7]) was 0, the HepSE_cholecystitis (Hepatotoxicity [8]) was 0 and the HepSE_hepatic necrosis (Hepatotoxicity [9]) was 0. For the same compound, the HepSE_cirrhosis (Hepatotoxicity [10]) was 0, the “HepSE_Combined Scores” value (Hepatotoxicity [11]) was 0 and the “HepSE_elevated liver function tests” value (Hepatotoxicity [12]) was 0. For the same compound, the HepSE_hepatic failure (Hepatotoxicity [13]) was 0 and the HepSE_liver fatty (Hepatotoxicity [14]) was 0.
